Among the data in publication PMC6792352, “Limited Chemical Structural Diversity Found to Modulate Thyroid Hormone Receptor in the Tox21 Chemical Library” (Environmental Health Perspectives, 2019) are CC50 values, retold here.

The data set can be described thus: in vitro. To be noted: rat, gh3-tre-luc cells.

One may read the CC50 as the concentration that lowers cell viability or growth by half. Low readings indicate harm at low concentration, high ones better tolerance by the cells. For `O=C(c1ccccc1)C1(O)CCCCC1` [(1-Hydroxycyclohexyl)(phenyl)methanone], the CC50 at 24 h (AC50 (uM) modified / 1000) was > 90 µM.

As to `OCC(c1ccc(Cl)cc1)c1ccc(Cl)cc1` [2,2-Bis(4-chlorophenyl)ethanol], the CC50 at 24 h (AC50 (uM) modified / 1000, Tox21_110001=Tox21_300725, viability, 1 nM T3 present, 24 h) is > 90 µM.

Turning to `CCCCCCCC[Si](OCC)(OCC)OCC` [Triethoxyoctylsilane], where the note is “AC50 (uM) modified / 1000”, the CC50 at 24 h was > 90 µM. Turning to `OCCN1CCN(CCO)CC1` [1,4-Piperazinediethanol], the CC50 at 24 h (AC50 (uM) modified / 1000) was > 90 µM. Consider `O=C1O[C@H]2[C@H](O)[C@@H]1OC(O)[C@H]2O` (stereo partly drawn) [Mannuronic acid lactone], for which the CC50 at 24 h (AC50 (uM) modified / 1000) is > 50 µM. For the setting “AC50 (uM) modified / 1000”, `CCCCCCCCCCn1cc[n+](CCCCCCCCCC)c1C` [1,3-Didecyl-2-methylimidazolium chloride] yielded a CC50 at 24 h of 6.21 µM. As to `C=Cc1ccccn1` [2-Vinylpyridine], the CC50 at 24 h (AC50 (uM) modified / 1000) is > 90 µM. On the same count and under the same terms, next, `O=C(NC(=O)c1c(F)cccc1F)Nc1cc(Cl)c(OC(F)(F)C(F)C(F)(F)F)cc1Cl` (stereo not drawn) [Lufenuron]: > 90 µM; `COc1ccc(-c2cc(=O)c3c(O)cc(O[C@@H]4O[C@H](CO[C@@H]5O[C@@H](C)[C@H](O)[C@@H](O)[C@H]5O)[C@@H](O)[C@H](O)[C@H]4O)cc3o2)cc1O` [Diosmin]: > 50 µM; `CC(C)CCCC(C)CCCC(C)CCCCC(C)CCCC(C)CCCC(C)C` (stereo not drawn) [Squalane]: > 50 µM.

As to `O=[N+]([O-])NC1=NCCN1Cc1ccc(Cl)nc1` [Imidacloprid], the CC50 at 24 h (AC50 (uM) modified / 1000) was > 90 µM.

Where the note is “AC50 (uM) modified / 1000”, `Cc1cc(C2CCCCC2)n(O)c(=O)c1` [Ciclopirox olamine] returned a CC50 at 24 h of 1.9 µM. As for `COc1ccc(Nc2ccc(OC)cc2)cc1` [4,4'-Dimethoxydiphenylamine], the CC50 at 24 h (AC50 (uM) modified / 1000) stood at 50.3 µM. With `CC(C)c1cccc(C(C)C)c1O` [Propofol], the CC50 at 24 h (AC50 (uM) modified / 1000) is > 90 µM. Regarding `CCCC(=O)OCCC(C)C` [Isopentyl butyrate], under “AC50 (uM) modified / 1000”, the CC50 at 24 h was > 90 µM. Turning to `CN(N=O)C(N)=O` [N-Nitroso-N-methylurea], where the note is “AC50 (uM) modified / 1000, Tox21_110001=Tox21_302850, viability, 1 nM T3 present, 24 h”, the CC50 at 24 h is > 90 µM. Turning to `COc1c(N2CCNC(C)C2)c(F)cc2c(=O)c(C(=O)O)cn(C3CC3)c12` (stereo not drawn) [Gatifloxacin], the CC50 at 24 h (AC50 (uM) modified / 1000) is > 50 µM. In the case of `CC(C)CCCC(C)N` (stereo not drawn) [2-Amino-6-methylheptane], the CC50 at 24 h (AC50 (uM) modified / 1000) is > 50 µM. Still for that read-out and setting: the value for `CNc1c2c(nn1C)CCCC2` [Tetridamine] was > 50 µM; that for `N=c1nc(N2CCCCC2)cc(N)n1O` [Minoxidil] was > 50 µM; that for `CC(NNC(=O)c1ccccc1)c1ccccc1` (stereo not drawn) [Benmoxin] was > 50 µM. On the same count and under the same terms, next, `CCOC(=O)C(C#N)=C(c1ccccc1)c1ccccc1` [Ethyl 2-cyano-3,3-diphenylacrylate]: > 90 µM.

In the case of `CCCCCCCCCCCCCCCC(=O)OC[C@@H](COP(=O)([O-])OCC[N+](C)(C)C)OC(=O)CCCCCCCCCCCCCCC`, under “AC50 (uM) modified / 1000”, the CC50 at 24 h is > 50 µM.

With `BrC(Br)Br` [Bromoform], the CC50 at 24 h (AC50 (uM) modified / 1000, Tox21_110001=Tox21_200189, viability, 1 nM T3 present, 24 h) was > 90 µM. For `COP(=S)(OC)Oc1cc(Cl)c(Cl)cc1Cl` [Fenchlorphos], the CC50 at 24 h runs as follows: (AC50 (uM) modified / 1000, Tox21_110001=Tox21_113416, viability, 1 nM T3 present, 24 h) > 50 µM; (AC50 (uM) modified / 1000, Tox21_110001=Tox21_301334, viability, 1 nM T3 present, 24 h) > 90 µM. On to `O=C(O)c1cccc(C(=O)O)c1C(=O)O` [1,2,3-Benzenetricarboxylic acid], for which the CC50 at 24 h (AC50 (uM) modified / 1000) is > 90 µM. With `Nc1ncnc2c1ncn2[C@H]1CC[C@@H](CO)O1` [2',3'-Dideoxyadenosine], the CC50 at 24 h (AC50 (uM) modified / 1000) is > 90 µM. The same measure, in the same setting: the value for `O=S(=O)(O)c1ccccc1/C=C/c1ccc(-c2ccc(/C=C/c3ccccc3S(=O)(=O)O)cc2)cc1` [Disodium 4,4'-bis(2-sulfostyryl)biphenyl] was > 80 µM. For the molecule `C[N+]1(CC2COC(c3ccccc3)(C3CCCCC3)O2)CCCCC1` (stereo not drawn) [Oxapium iodide], the CC50 at 24 h (AC50 (uM) modified / 1000) is > 50 µM. In turn, `CC(C)(N=C=O)c1cccc(C(C)(C)N=C=O)c1` [1,3-Bis(2-isocyanato-2-propyl)benzene] yielded a CC50 at 24 h (AC50 (uM) modified / 1000) of 78.6 µM. Consider `CNC(=O)C(c1ccccc1)c1ccccc1` [N-methyl-alpha-phenylbenzeneacetamide], for which, where the note is “AC50 (uM) modified / 1000”, the CC50 at 24 h is > 90 µM.

`NC1CCC(CC2CCC(N)CC2)CC1` (stereo not drawn) [4,4'-Diaminodicyclohexylmethane]: the CC50 at 24 h (AC50 (uM) modified / 1000) is > 90 µM.
